How the values were obtained:
Assay type in all cases: biochemical
[1] = DPPH Test (radical trapping, photometric at 513 nm); details: Batch A; sample concentration 0.3 % b.w.; average of 2 measurements
Text: In a first series of tests, the effectiveness of the extracts against oxidative stress was investigated by chemical methods. A commercially available extract of tomatoes, CLA (Tonalin® CLA, Cognis) and their mixtures were used in concentrations of 0.3 % b.w. The first test substrate selected was diphenyl picryl hydrazyl (DPPH), a purple-red coloured stable radical which changes into its colourless leuco derivative on contact with radical trappers. The change of colour was followed photometrically at 513 nm. The test results are set out in Table 1 ("DPPH Test") where the inhibition of DPPH is shown in % absolute.

[2] = Salicylic Acid Test (hydroxylation of salicylic acid by hydroxyl radicals, 490 nm); details: sample concentration 0.3 % b.w., average of 2 measurements
Procedure: In a second test, the hydroxylation of salicylic acid by hydroxyl radicals (from the reaction of hydrogen peroxide with iron(III) ions and EDTA) was investigated as a reference system. This reaction can also be photometrically investigated because the hydroxylation product is reddish in colour. The influence of the extracts on the formation of hydroxysalicylic acid was measured at an optical density of 490 nm. The results are also set out in Table 1 where inhibition is again shown in % absolute ("Salicylic Acid Test"). Table 1 Radical-trapping properties in % absolute (results are averages of 2 measurements)

[3] = Deoxyribose oxidation by hydroxyl radicals (thiobarbituric acid, 532 nm), with or without EDTA; details: sample concentration 0.3 % b.w., average of 2 measurements
Procedure: In the following test, deoxyribose was used as the test substance. In the presence of hydroxyl radicals formed from H2O2 in the presence of Fe^2+ and EDTA, deoxyribose is oxidized. A pink-coloured substance is formed from the oxidized form by condensation with thiobarbituric acid. The optical density was determined at 532 nm and is dependent on the content of oxidized deoxyribose. A radical-trapping substance reacts with the hydroxyl radicals formed and reduces the formation of pink-coloured substances in this reaction mixture. In addition, the same reaction was carried out without EDTA to investigate complexing properties of the extract with Fe^2+ ions. The concentration of the samples has been again 0.3 % b.w. Table 2 Radical-trapping properties with desoxyribose in % absolute (results are averages of 2 measurements)

xanthine oxidase = assay: Xanthine oxidase test (superoxide radicals detected with luminol, luminol + microperoxidase or NBT); details: sample concentration 0.3 % b.w., average of 2 measurements; for Test with xanthan oxidase, inhibition, NBT: optical density at 490 nm
Text: In the next test, the radical-trapping properties of the test samples were investigated using xanthine oxidase as the test system. Under oxidative stress, the enzyme converts purine bases, for example, adenine or guanine, into uric acid with intermediate formation of oxygen radicals which are spontaneously decomposed into H2O2 and oxygen by Superoxid-Dismutase (SOD). These Superoxid radicals can be detected and quantitatively determined by reaction with luminol or luminol and microperoxidase and by NBT via the luminescence and the optical density at 490 nm. The luminescence yield diminishes in the presence of substances with radical-trapping properties. The concentration of the test samples has been at 0.3 % b.w. again. The results are set out in Table 3 where the inhibition is shown in % absolute ("Luminol Test"). Table 3 Test with xanthan oxidase in % absolute (results are averages of 2 measurements)

Test with xanthan oxidase, inhibition, Luminol + Microperoxidase (xanthine oxidase; Batch A): 5 % absolute
Test with xanthan oxidase, inhibition, Luminol + Microperoxidase (xanthine oxidase; Batch B): 7 % absolute
Test with xanthan oxidase, inhibition, Luminol (xanthine oxidase; Batch A): 3 % absolute
Test with xanthan oxidase, inhibition, Luminol (xanthine oxidase; Batch B): 3 % absolute
Test with xanthan oxidase, inhibition, NBT (xanthine oxidase; Batch A): 1 % absolute
Test with xanthan oxidase, inhibition, NBT (xanthine oxidase; Batch B): 1 % absolute
Substance: conjugated linoleic acid [C2]
DPPH Test, inhibition of DPPH [1]: 18 % absolute
Salicylic Acid Test, inhibition ([2]; Batch A): 5 % absolute
Salicylic Acid Test, inhibition ([2]; Batch B): 5 % absolute
Radical-trapping properties with desoxyribose, Reaction with EDTA ([3]; Batch A): 1 % absolute
Radical-trapping properties with desoxyribose, Reaction with EDTA ([3]; Batch B): 0 % absolute
Radical-trapping properties with desoxyribose, Reaction without EDTA ([3]; Batch A): 0 % absolute
Radical-trapping properties with desoxyribose, Reaction without EDTA ([3]; Batch B): 0 % absolute
